Laboratory results taken from US7008931B2, “Anti-inflammatory and healing medicine based on laminarin sulphate” (Laboratoires GOEMAR S.A., priority 2000, dated 2006).

Key:
[1] = test system: edema of the ear of the mouse induced with croton oil; experiment: edema of the ear of the mouse induced with croton oil; format: in vivo; conditions: for equipotent amount per ear for inhibition of inflammation: topical, with 70 μg croton oil, 4 hours
Experimental: The topic activity which inhibits inflammation and which is presented by laminarin sulphate, has been tested in the model constituted by the edema of the ear of the mouse induced with croton oil. The control was indomethacin. The tested animals were male mice of the type Swiss CD-1 whose weight was 20 to 25 g. Three groups of tests were carried out on three groups of animals. The first group is a negative control group wherein only the pro-inflammatory agent consisting of croton oil was used. The second group is a positive control group and comprises the use of croton oil and of indomethacin (200 nMol/ear which corresponds to 71.56 μg/ear). The third group relates to the use of laminarin sulphate and comprises the use of 70 μg of croton oil and of increasing amounts of laminarin sulphate (100, 250, 500, 750 and 1000 μg/ear).
In the case of the control groups, of the group of reference and of the group comprising the use of the different concentrations of laminarin sulphate, 10 mice were used each time. […] On each ear (surface of about 1 cm^2) 70 μg of croton oil were applied at the same time as indomethacin or laminarin sulphate or dexamethasone. Four hours later, samples having a diameter of 7 mm were cut up and weighed.
For the statistical exploitation an analysis of the variance (ANOVA) as well as the Scheffe test were carried out.

[2] = test system: complement system (obtained from human serum), classical route; experiment: inhibition of the activation of the complement by the classical route (hemolysis of sheep antibody-sensitized erythrocytes); format: biochemical
Description: (§1) Test 1: Measuring of the Anti-Complementary Activity
(§2) The complement system plays a key role in the inflammatory processes induced by infections. The substances which inhibit in vitro the activation of the complement are potentially in vivo anti-inflammatory products.
(§3) The activation of the complement can be carried out by the classical route in which the system antigen-antibody plays a role, or by the so-called alternative route. The anti-complementary activity of laminarin sulphate has been examined in vitro in comparison to that of the above heparin of low molecular weight used as reference (HBPM).
(§4) The evaluation of the anti-complementary reactivity is carried out by photometric or colorimetric measurement of the hemoglobin freed by lysis of the erythrocytes. The erythrocytes used are sheep antibody-sensitized erythrocytes for the classical route and rabbit erythrocytes for the altern route.
(§5) In a first step, the product to be tested and the complement system (obtained from human serum) are put into contact with one another and if necessary incubated during 30 minutes and then, in a second step, they are put into contact with the erythrocytes during 45 minutes.
(§6) The more the test product inhibits the complement, the more the lysis of the erythrocytes is weak and the less the amount of freed hemoglobin is important.
(§7) The anti-complementary activity is expressed in IC (50) (IC meaning “inhibiting concentration”) which designates the concentration expressed in […] of test substance per ml of mixture of the test substance and the serum (μg/ml), concentration which is necessary to inhibit by 50% the activity of the complement.

[3] = test system: complement system (obtained from human serum), alternative route; experiment: inhibition of the activation of the complement by the alternative route (hemolysis of rabbit erythrocytes); format: biochemical; conditions: for IC (50), inhibition of the complement by the alternative route: laminarin sulphate without incubation
Description: as §1, §2, §3, §4, §5, §6, §7

[4] = test system: polymorphnuclear neutrophiles (PMN); experiment: chemotaxy of granulocytes, Boyden Chamber test with C5a (human serum activated with Zymosan); format: cell-based
Description: Test 2: Examination of the Influence on the Chemiotaxy of the Granulocytes
The polymorphnuclear neutrophiles or PMN are cells which are characteristic of the infiltrate of the acute inflammation. The movement or the migration of neutrophiles from inside of the blood vessels in direction of the tissues is provoked by molecules which are called chemotaxins. Two chemotaxins are particularly important in the case of the polynuclear neutrophiles, i.e. the fragment C5a of the complement and the interleukin 8 (IL-8). The movement of the neutrophiles can be aleatory (which means that a so called chemokinesis occurs) or can be oriented along the length of a gradient of chemotaxins.
Consequently, the ability of laminarin sulphate to inhibit the chemotaxy of […] was examined; this study has been carried out in vitro by way of the test called Test of the Boyden Chamber (a variant of the Boyden Chamber having 96 holes was used) the fragment C5a in the form of human serum activated with Zymosan having been used as chemiotaxin. As shown on FIG. 2, the Boyden Chamber comprises 2 compartments respectively 1 and 2 which are separated by a membrane 3 consisting of polycarbonate (dimension of the pores 3 μm). The pores of the said membrane authorize the active passing of the cells but not their passive diffusion.
The polymorphnuclear neutrophiles PMN are placed in the higher compartment 2 together with the substance to be tested at various doses. The C5a is placed in the lower compartment.
The measurement of the inhibition of the chemotaxy is carried out by numbering the cells which have been attracted in the lower compartment. For the numbering of the cells, they are lysed with Triton X, and the free peroxidase is then quantified by adding 2,2-azino-di-[3-ethylbenzo-thiazoline] sulfonate or ABTS marketed by Boehringer Mannheim and by measuring at 405 nm the extinction of the colored product which has been formed.

P-selectin = target: T1, P-selectin (Homo sapiens, UniProt P16109); experiment: cellular adhesion on immobilized P-selectin under static conditions (U 937 cells); format: cell-based
T1 sequence (P16109 42-830): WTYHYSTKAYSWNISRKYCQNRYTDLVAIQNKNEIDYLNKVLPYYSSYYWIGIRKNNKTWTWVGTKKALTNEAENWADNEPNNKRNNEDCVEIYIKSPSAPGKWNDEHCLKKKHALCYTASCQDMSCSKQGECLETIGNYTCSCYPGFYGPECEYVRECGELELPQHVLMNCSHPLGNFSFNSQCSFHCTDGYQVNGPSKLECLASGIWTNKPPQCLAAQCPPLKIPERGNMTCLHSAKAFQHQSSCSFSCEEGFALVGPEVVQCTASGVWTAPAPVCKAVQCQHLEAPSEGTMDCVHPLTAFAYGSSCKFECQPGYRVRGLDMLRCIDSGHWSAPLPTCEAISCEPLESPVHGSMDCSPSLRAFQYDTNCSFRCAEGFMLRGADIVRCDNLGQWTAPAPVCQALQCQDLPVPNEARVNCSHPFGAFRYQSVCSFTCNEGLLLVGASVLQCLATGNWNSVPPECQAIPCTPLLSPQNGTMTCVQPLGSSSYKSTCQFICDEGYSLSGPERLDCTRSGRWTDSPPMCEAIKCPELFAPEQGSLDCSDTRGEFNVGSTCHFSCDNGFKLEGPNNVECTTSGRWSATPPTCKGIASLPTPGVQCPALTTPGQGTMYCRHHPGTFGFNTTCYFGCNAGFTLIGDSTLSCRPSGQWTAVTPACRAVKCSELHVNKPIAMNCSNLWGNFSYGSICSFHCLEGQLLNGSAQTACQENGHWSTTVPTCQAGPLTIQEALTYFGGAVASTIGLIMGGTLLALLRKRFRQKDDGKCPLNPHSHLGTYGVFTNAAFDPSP
Description: (§8) Test 3: Influence on the Adhesion of the Cells Induced by Selectin
(§9) Consequently, the effect of laminarin sulphate has been examined through the direct quantification of the cells bond to the selectins immobilized on microplates.
(§10) The influence of the laminarin sulphate on the adhesion of the cells due to the selectins has been studied first under static conditions as schematically shown on FIG. 3a (E-selectins or P-selectins) and 3b (L-selectins). The selectin has been deposited on a microtitration plate; in that respect and in the case of L-selectin the human chimera Fc of L-selectin has been used. Then, the plate was incubated with the test substance and with cells carrying the ligands of the corresponding selecting, that is to say in the case of L-selectin the human cellular line LS 180 of the adenocarcinoma of the colon and in the case of the selectins P and E the human lymphomic cellular line U 937.
(§11) The number of cells bond to the microtitration plate after washing and subsequent lysis of these cells was determined and their lactate dehydrogenase content was determined by way of an enzymatic reaction.

[5] = test system: human chimera Fc of L-selectin; experiment: cellular adhesion on immobilized L-selectin under static conditions (LS 180 cells); format: cell-based
Description: as §8, §9, §10, §11

[6] = test system: intrinsic system of the coagulation; experiment: coagulation test APTT; format: biochemical
Description: (§12) The anti-coagulant activity which depends from the concentration of laminarin sulphate has been determined in comparison with that of heparin in the classical coagulation tests APTT or “Aktivierte partielle Thromboplastin-Zeit”, of the duration of the prothrombin, by way of the test so called “HEPTEST” and the duration of the thrombin. The APTT reflects an interaction with the intrinsic system of the coagulation while the duration of prothrombin reflects an interaction with the extrinsic coagulation; the so called “HEPTEST” is a classical test for the measurement of the inhibiting activity of heparin with respect to the Xa factor and the duration of thrombin corresponds to the last step of the coagulation, i.e. the formation of fibrins induced by the thrombin. In contradiction with that of heparin, the activity of laminarin sulphate in the so called “HEPTEST” is more than 20 times weaker. […] The specific activity (IU/mg) in the APTT represents 30% of the activity of heparin and in the case of the duration of thrombin it represents 60%. In order to totally prevent the coagulation it is convenient to use in the case of APTT a concentration 4 times higher and in the case of the duration of thrombin a concentration 20 times higher.

Xa factor = experiment: HEPTEST coagulation test; format: biochemical; conditions: relative to heparin
Description: as §12

extrinsic coagulation = experiment: duration of the prothrombin coagulation test; format: biochemical
Description: as §12

thrombin [7] = experiment: duration of the thrombin coagulation test; format: biochemical
Description: as §12

factor Xa = experiment: specific anti-factor Xa test using chromogeneous substrates; format: biochemical
Description: (§13) The effect in the case of the duration of thrombin can be considered as being due to an inhibition of thrombin dependent from the cofactor II heparin. […] For that reason and due to the better effect in the systems of anti-inflammatory tests, the profile “utility/risk” moves in the case of laminarin sulphate unequivocally in the sense of an anti-inflammatory effect. It follows that the anti-inflammatory properties of laminarin sulphate can be advantageously used without the apprehension of undesirable side effects on coagulation.

thrombin [8] = experiment: specific anti-thrombin test using chromogeneous substrates; format: biochemical
Description: as §13

[9] = test system: MDA-MB-231, MCF, U937, LS180 cellular lines; experiment: cytotoxicity tests (5 days proliferation with crystal violet or MTT, acute LDH kit); format: cell-based, human; conditions: highest tested concentration, 100 μg/ml
Experimental: In order to test cytoxicity, the following cellular lines were used: MDA-MB-231 (human mammary carcinoma); MCF (human mammary carcinoma); U937—(human lymphoma); and, LS180 (human adenocarcinoma).
The test used is a 5 days proliferation test and the determination of the number of living cells was carried out by coloration with crystallin violet or crystallin purple. A 5 day proliferation test with determination of the number of living cells using the test MTT has also been carried out. Finally the acute cytotoxicity has been determined using a kit marketed by the company Boehringer Mannheim under the title “Cytotoxicity detection kit” (LDH).

human chimera Fc of L-selectin, sequence (P14151 39-318 limits assumed, change not shown): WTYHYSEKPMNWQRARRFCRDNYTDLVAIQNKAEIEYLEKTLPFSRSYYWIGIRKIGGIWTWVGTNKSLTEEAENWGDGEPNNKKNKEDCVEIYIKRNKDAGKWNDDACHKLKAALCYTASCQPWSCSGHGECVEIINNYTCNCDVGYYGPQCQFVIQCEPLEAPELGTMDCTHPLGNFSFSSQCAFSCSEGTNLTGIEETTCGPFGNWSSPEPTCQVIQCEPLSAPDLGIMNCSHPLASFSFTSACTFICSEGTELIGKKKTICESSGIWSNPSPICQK

Compound: COc1ccc2c(c1)c(CC(=O)O)c(C)n2C(=O)c1ccc(Cl)cc1 [indomethacin, reference compound]
- equipotent amount per ear for inhibition of inflammation [1]: 72 μg per ear

Compound: heparin [reference compound]
- IC (50), inhibition of the activation of the complement by the classical way [2]: 43.7 ± 1.9 µg/mL
- IC (50), inhibition of the complement by the alternative route [3]: 464 µg/mL
- inhibition of the cellular migration ([4]; 1.67 μg/ml): not inhibited
- inhibition of the cellular migration ([4]; 4.2 μg/ml): 10%±5%
- Inhibition expressed in % of the cellular adhesion on P-selectin (P-selectin; 5 μg/ml): 12 ± 5%
- Inhibition expressed in % of the cellular adhesion on P-selectin (P-selectin; 25 μg/ml): 30 ± 4%
- Inhibition expressed in % of the cellular adhesion on L-selectin ([5]; 5 μg/ml): 15 ± 5%
- Inhibition expressed in % of the cellular adhesion on L-selectin ([5]; 25 μg/ml): 32 ± 3%

Compound: laminarin sulphate
- IC (50), inhibition of the activation of the complement by the classical way [2]: 0.54 ± 0.06 µg/mL
- times more active on the inhibition of the complement than heparin [2]: 80 times
- times more active on the inhibition of the complement than heparin [3]: 10 times
- prolongation of the activity of the complement ([3]; dose of 2.4 μg/ml): 50%
- prolongation of the activity of the complement ([3]; laminarin sulphate at low concentrations): more than 100%
- IC (50), inhibition of the complement by the alternative route [3]: 43 µg/mL
- inhibition of the cellular migration ([4]; 1.67 μg/ml): 50%±6%
- Inhibition expressed in % of the cellular adhesion on P-selectin (P-selectin; 5 μg/ml): 50 ± 2%
- Inhibition expressed in % of the cellular adhesion on P-selectin (P-selectin; 25 μg/ml): 63 ± 3%
- Inhibition expressed in % of the cellular adhesion on L-selectin ([5]; 5 μg/ml): 33 ± 1%
- Inhibition expressed in % of the cellular adhesion on L-selectin ([5]; 25 μg/ml): 89 ± 10%
- concentration to totally prevent the coagulation, times higher than heparin ([6]; APTT): 4 times
- specific activity (IU/mg) in the APTT as % of the activity of heparin ([6]; relative to heparin): 30%
- activity in the HEPTEST, times weaker than heparin (Xa factor): more than 20 times
- anti-coagulant effect on the duration of prothrombin (extrinsic coagulation): no pronounced anti-coagulant effect
- concentration to totally prevent the coagulation, times higher than heparin (thrombin [7]; duration of thrombin): 20 times
- specific activity (IU/mg) in the duration of thrombin as % of the activity of heparin (thrombin [7]; relative to heparin): 60%
- anti-factor Xa activity dependent from anti-thrombin (factor Xa): does not present a significant anti-factor Xa activity
- anti-thrombin activity (thrombin [8]): nor an anti-thrombin activity
- times more active than indomethacin from the molar point of view ([1]; 25 nMol laminarin sulphate vs 200 nMol indomethacin): nine
- inhibiting activity when applied after croton oil instead of simultaneously ([1]; control experiment, applied after croton oil): no difference
- efficiency compared with dexamethasone ([1]; equimolar concentration of 0.12 mmol/ear): more efficient than dexamethasone
- equipotent amount per ear for inhibition of inflammation [1]: 250 μg per ear
- cytotoxic effect [9]: no cytotoxic effect was noticed
